One may read the melting point as the temperature, or range, at which the solid turns liquid.

We go through 87 compounds from a melting point compilation (Tetko et al.; mined from patent text by program, amines drawn as free bases though some values may be those of a salt).

Consider `COC[C@@H]1CN(c2ccc(OCc3ccccc3)cc2)C(=O)O1`, for which the melting point was 101 °C. To `Cc1cc(Cc2nnc(Nc3cc(Br)cc(C(F)(F)F)c3)c3ccccc23)ccn1` belongs 122 to 123 °C; to `Cc1cc(COc2ccc(S(=O)(=O)NC[C@@H](C(=O)NO)N3CCCCC3)cc2)c2ccccc2n1`, 150 °C; to `C[C@H](Nc1nc(Nc2cccc(NS(C)(=O)=O)c2)nc2[nH]cnc12)C(C)(C)C`, 150 to 153 °C. Compound `O=C(c1cn(-c2ccccc2)nc1-c1ccc([N+](=O)[O-])o1)N1CCCC1` yielded a melting point of 236 to 238 °C. `COC(=O)C1CC(=O)N(Cc2ccccc2)C1c1c(Cl)cccc1Cl` (configuration not stated) registered a melting point of 97 to 102 °C.

In turn, `Cc1onc(-c2ccccc2)c1-c1cc2ccccc2[nH]1` displayed a melting point of 145 to 146 °C. For the compound `CC(C)CN1C(=O)CCC(c2ccccc2Cl)c2ccccc21` (configuration not stated), the melting point lay in the range of 139 to 140 °C. Turning to `CN(C)C(=O)c1cnn(-c2ccccc2)c1Br`, the melting point was in the range of 79 to 81 °C. Consider `COc1ccc(CSC2CC(=O)N2CC(=O)NCCCCCCc2ccc(F)cc2)cc1` (configuration not stated), for which the melting point was in the range of 53 to 55 °C. To `CC(=O)N1CCC(C(=NN)c2ccc(F)cc2F)CC1` belongs 139 to 142 °C; to `O=C(O)CCCC(O)c1ccc(Cl)cc1` (configuration not stated), 85 to 87 °C.

`O=C(NCc1ccc(Cl)cc1)c1cc2c(O)c(C(=O)NCc3ccc(Cl)cc3)cnc2o1`: the melting point fell in the range of 230 to 245 °C. `C[C@@H](O)[C@](O)(Cn1cncn1)c1ccc(F)cc1F` (racemic): the melting point was in the range of 115 to 117 °C. As for `CC(C)(C)OC(=O)N1C(=O)C(C2=COc3ccccc3O2)=C(c2cn(C(=O)OC(C)(C)C)c3cc(OCc4ccccc4)ccc23)C1=O`, the melting point is 81 °C.

The compound `CCN(CC)C(=S)NC1CC2c3cccc4[nH]c(I)c(c34)CC2N(C)C1` (configuration not stated) gave a melting point of 198 °C. The value for `Cc1nc2ccc(Cl)cc2s1` was 85 to 86 °C; that for `CCCCn1c(=O)c2[nH]c(Cl)nc2n(CCCC)c1=O` was 152 °C; that for `O=[N+]([O-])c1ccc(Oc2ccc(C(F)(F)F)cc2Cl)cc1SCl` was 74 to 78 °C.

In turn, `CC1=C(/C=C/C(C)=C/C=C/C(C)=C\C(=O)O)C(C)(C)C(=O)CC1` had a melting point of 178 to 179 °C.

`CCCCc1c(C(=O)OCC)[nH]c2cccc(SC)c2c1=O` showed a melting point of 80 °C. Take `Nc1ccc(CCC(=O)N2CCCCC2)cc1[N+](=O)[O-]`: the melting point fell in the range of 140 to 141 °C. The compound `C[C@@H]1S[C@@H](C(=O)Nc2ccc(CN3CCSCC3)cc2)Cc2cc3c(cc2C1=O)OCO3` yielded a melting point of 204 to 206 °C. `CCCCCCCCSc1ccc(CC(COC(C)=O)(COC(C)=O)NC(C)=O)cc1`: the melting point was 71 to 74 °C.

For `Cc1c(N)c([N+](=O)[O-])cc2c(=O)c(C(=O)O)cn(-c3cc(N)c(F)cc3F)c12`, the melting point was over 280 °C.

In the case of `NC(=O)c1ccc(-c2nn(-c3ccc(C(=O)O)cc3)c3ccc([N+](=O)[O-])cc23)cc1`, the melting point was in the range of 320 to 322 °C.

Consider `O=c1[nH]c2ccc(Br)cc2cc1[N+](=O)[O-]`, for which the melting point came to 276 °C.

On to `CCOC(=O)N[C@@H]1c2cc(C#N)ccc2OC(C)(C)[C@H]1O` (relative stereo), for which the melting point fell in the range of 147 to 148 °C.

For the compound `CC(=O)Oc1ccccc1C(=O)Nc1cccc(F)c1`, the melting point was 88.5 to 89.7 °C. For `CC1(C)OC(=O)C(Oc2ccc(F)c(F)c2)=C1c1ccc(S(C)(=O)=O)cc1`, the melting point is 93 to 95 °C. `COc1ccc2c(NC(N)=O)c(C(=O)Nc3ccc(Cl)cc3Cl)oc2c1` returned a melting point of over 260 °C.

`CCCCOc1cc2cc(CO)c(CO)c(-c3ccnc(NN)c3)c2cc1OC` registered a melting point of 93 to 97 °C.

On to `CCOC(=O)CC(=O)N1NCCCC1C(=O)OC(C)(C)C` (configuration not stated), for which the melting point lay in the range of 86 to 87 °C. Compound `Clc1ncccc1OCCOc1ccccc1` displayed a melting point of 77 to 78 °C. For `CC1=CC2(C)CC3CCCC(C)(C2=O)C13` (configuration not stated), the melting point was in the range of 46 to 47 °C. To `O=c1ccc(-c2ccc(OCCCN3CCCCC3)nc2)n[nH]1` belongs 155 to 158 °C.

Compound `C[C@H]1C(=O)C[C@@H]2C[C@H]1OO[C@]2(C)/C=C\c1cc(C(F)(F)F)nc2cc(C(F)(F)F)ccc12` came in with a melting point of 160 °C.

Take `CCC(=O)c1ccc(-c2ncccc2S(=O)(=O)Nc2ncc(C)nc2OC)cc1`: the melting point lay within 126 to 127 °C. With `COc1cc(N)c(Cl)cc1C(=O)NC1CC2CCCCN2C1` (configuration not stated), the melting point was 192 to 193 °C. For the compound `C=C(c1ccccc1)c1cccc(C(=NOCc2ccc(OCc3nc(-c4ccccc4)oc3C)cc2)C(=O)O)c1`, the melting point lay within 171 to 172 °C. Consider `COc1nc(Cl)cc2nc(S(=O)(=O)Nc3ccn(C)n3)nn12`, for which the melting point lay in the range of 185 to 187 °C. The value for `CCN(CC)C(=O)c1cccc(-c2nc(=O)c3ccccc3s2)n1` was 194 °C; that for `CCN(CC)CC1CCN(c2c(F)cc3c(=O)c(C(=O)O)cn(CC)c3c2F)C1` (configuration not stated) was 210 to 211 °C.

`Cc1ccc(-c2coc3c(C)c(O)ccc3c2=O)cc1` displayed a melting point of 264 to 267 °C. The value for `Cc1nc(O)nc(C)c1N1CCCn2c1nc1c(Cl)ccc(C(OC(F)F)C(F)(F)F)c12` (configuration not stated) was 208 to 210 °C; that for `CCOC(=O)Cn1c(-c2cccc(Cl)c2)nc2cccnc21` was 98 to 99.8 °C.

Compound `COc1cc2c(c(C(=O)c3ccccc3)c1)NC(=O)C2` had a melting point of 154 °C. Turning to `CC(COS(C)(=O)=O)N1c2ccccc2Sc2ccc(C#N)cc21` (racemic), the melting point is 124 °C. In turn, `Cn1nnnc1C(/C=C/[C@@H]1C[C@@H](O)CC(=O)O1)=C(c1ccc(F)cc1)c1ccc(F)cc1` registered a melting point of 104 to 106 °C. To `CC1COc2c(-c3ccccc3)ccc3c(=O)c(C(=O)O)cn1c23` (configuration not stated) belongs 295 to 296 °C; to `CCOC(=O)C[C@H]1c2ccc(OC)cc2CC[C@H]1c1ccc(OC)cc1` (racemic), 81 °C; to `CCC(CC)n1cc(Br)nc(N2CCc3cc(OC)cc(Br)c32)c1=O`, 133 to 135 °C. As for `CNC(=O)C(=O)CCCCCON=Cc1ccc(-c2ccccc2)cc1`, the melting point fell in the range of 86 to 87 °C. The value for `CCC(CC)n1ncn(-c2ccc(N3CCN([C@H](C)[C@@](O)(Cn4cncn4)c4ccc(F)cc4F)CC3)cc2)c1=O` was 110 to 113 °C; that for `CCCOc1ccccc1-c1nc2nc(NC)ncc2c(=O)[nH]1` was 235 to 236 °C; that for `CC1=NC(NC(=O)Nc2cc(C)ccn2)C(=O)N(CC(=O)N2CC3CCC(CC3)C2)c2c(C)cccc21` (configuration not stated) was 152 to 154 °C.

As for `CN(N)c1cnn(-c2cccc(C(F)(F)F)c2)c(=O)c1`, the melting point lay in the range of 125 to 127 °C. The compound `Cc1ccc(S(=O)(=O)Nc2ccc(N)c([N+](=O)[O-])c2)cc1` registered a melting point of 146 °C.

Turning to `COc1cc(CC(=O)O)cc(OCCCc2cn(-c3ccc(C(F)(F)F)cn3)nc2C(C)C)c1`, the melting point was in the range of 109 to 110 °C. Turning to `OCc1ccc2c(c1)C(C(Cl)(Cl)Cl)OC(C(Cl)(Cl)Cl)O2` (configuration not stated), the melting point was 134 to 136 °C. In turn, `COC(=O)CCc1conc1-c1ccc(Cl)cc1` came in with a melting point of 56 to 57 °C.

As for `COc1ccc(-n2ncc(-c3ccc(C=Cc4ccc(-c5nc6ccccc6o5)cc4)cc3)n2)cc1`, the melting point came out at 255 °C. Compound `Fc1cccc2c1[nH]c1c2ccc2cc[nH]c21` yielded a melting point of over 250 °C. `Cc1ccc(C(O)=S)cn1` returned a melting point of 186 to 188 °C. The value for `CCCn1nc2c(N)nc3ccccc3c2c1CCCCS(N)(=O)=O` was 211 to 213 °C. The compound `CC(C)(C)OC(=O)Nc1cc(OC(C)(C)C)c(C#Cc2ccc(F)cc2)cc1[N+](=O)[O-]` displayed a melting point of 201 °C. In turn, `CCCCOC(=O)CCCCCCCCCCCOCC(O)CNCCO` (configuration not stated) showed a melting point of 48.6 to 50.2 °C. The compound `Cc1cccc(N2CCN(Cc3n[nH]c4ccccc34)CC2)c1` returned a melting point of 132 to 134 °C.

`CCC1(C)CC2(NC(=O)N(C)C2=O)C(C)C(C)(CC)N1C` (configuration not stated) came in with a melting point of 190 to 195 °C. In the case of `CC1(C)CCCN(CCNc2ccnc3cc(Cl)ccc23)C1`, the melting point fell in the range of 151 to 153 °C. Regarding `O=C(CCCCCl)c1ccc2c(c1)Cc1cc(C(=O)CCCCCl)ccc1O2`, the melting point lay within 134 to 135 °C.

`Cc1ccc(S(=O)(=O)N2CCC(S(=O)(=O)c3ccc(Cl)cc3)CC2)cc1` registered a melting point of 263 to 264 °C.

The compound `O=C(OC1C2CN(Cc3ccccc3)CC1CN(C(=O)c1ccc(Cl)cc1)C2)c1ccccc1` (configuration not stated) registered a melting point of 165 °C. `Nc1ccc(NC(=O)C=C2CC(C(=O)O)Nc3cc(Cl)cc(Cl)c32)cc1` (racemic) displayed a melting point of over 250 °C. For the compound `CN(O)C(=O)Nc1cc(Cl)cc(Cl)c1`, the melting point lay within 131 to 132 °C. Consider `Nc1ccc(S(=O)(=O)Nc2ccc(Cl)c3cc[nH]c23)cn1`, for which the melting point lay in the range of 204 to 206 °C. To `CCCCS(=O)(=O)Oc1c(C(=O)OC(C)C)sc(C(=O)OC(C)C)c1C` belongs 59 to 61 °C; to `Cc1ccc2cccc(OCc3c(Cl)ccc(OCCNC(=O)CCc4ccccc4)c3Cl)c2n1`, 112 to 114 °C. The value for `O=c1[nH]c2ccccc2cc1CN1CC=C(CCc2ccccc2)CC1` was 177 to 179 °C; that for `CCCC(Br)c1nc2ccccc2n1Cc1ccc(C#N)cc1` (configuration not stated) was 135 °C; that for `CC(C)(C)C(=O)c1cn(COCC[Si](C)(C)C)c2ncc(-c3ccc4c(ccn4Cc4ccccn4)c3)nc12` was 194 to 196 °C. `N#CCCN(N)c1nc2ccccc2o1` showed a melting point of 169 to 170 °C. As for `N#Cc1cc(Cc2ccncc2)cc(-c2cccc([N+](=O)[O-])c2)c1O`, the melting point amounted to 225 °C. For `Cc1ccc(Br)c(S(=O)(=O)C(F)(F)F)c1`, the melting point was 69 °C.

The compound `COc1ccc(-c2cc(C(=O)O)c(=O)n(CCCc3ccc(F)cc3)n2)cc1F` had a melting point of 185 to 187 °C. In turn, `CCC(Oc1ccccc1)c1nnc(NC(=O)N(C)CC(OC)OC)s1` (configuration not stated) yielded a melting point of 84 to 85 °C. To `CCc1nc(/C=C/c2cn(-c3ccccc3)nc2OCc2ccc(OCc3nc(-c4ccc(C(=O)O)o4)oc3C)c(OC)c2)cs1` belongs 154 to 155 °C.
